# Where two headings read alike, the source gives them in different places.
# Experiments:
# CHO.DXB11 cells [1] = conditions: 12 day fed-batch, prediction profile
# From the text: Ethanol was used in design of experiments (DOE) created with custom DOE design using JMP statistical software (World Wide Web.jmp.com/en_us/home.html). A response model was created using standard least squares to determine the significance of response from ethanol supplementation. Potential interactions with other supplemented components were also considered. Ethanol was fed daily between 0.0% and 0.1% using microscale bioreactors. FIG. 9 is a prediction response profile for Titer, Man5%, G0%, Acidic % and Basic % species while the change in response values for each of these is shown depicted in Table 4 below.
# CHO.DG44 derived clone = conditions: higher ethanol concentrations (0.05%, 0.15% v/v fed daily) vs baseline, 13 day fed-batch, mAb 2
# Description: Antibody production was performed as described above for mAb 2. This cell line is a CHO.DG44 derived clone producing mAb 2.
# (§1) Ethanol was fed daily between 0.0% and 0.15% v/v. Calculated cumulative cell culture concentration (concentration in vessel at time of cell harvest) of ethanol ranged between 0.0%-1.35% v/v. Bioreactor physical conditions were maintained at a pH of 7.0±0.1 shifted to 6.8±0.1, dissolved oxygen maintained at 30% air saturation and a constant temperature of 35° C. Basal and feed media were fully synthetic and chemically defined containing no animal derived components.
# CHO.DXB11 cells [2] = conditions: fed once daily, range 0.1% to 0.4% v/v
# Description: Ethanol cytotoxicity to CHO.DXB11 cells was determined by daily feed dosing. 4 mL of CHO cells at 3 e6/mL cellular density were seeded into 6 well deep plates, mixed at 150 RPM, and fed once daily with ethanol ranging from 0.1% to 0.4% volume to volume (v/v).
# CHO.DXB11 derived clone = conditions: ethanol 0.057% v/v fed daily vs baseline, 12 day fed-batch, mAb1
# Description: To determine if ethanol altered mAb properties it was incorporated into fully defined and synthetic feed media and fed daily in a fed-batch process using micro—(15 mL working volume) bioreactors.
# (§2) Antibody production was performed as described above for mAb 1.
# Cell line A is a CHO.DXB11 derived clone producing mAb 1. Cell line B is a different CHO.DXB11 derived clone producing mAb1. The expression cassette is identical between the two cell lines.
# (§3) Ethanol was fed daily 0.0% or 0.057% v/v using microscale bioreactors and two different cellular clones producing mAb1. Calculated cumulative cell culture concentration (concentration in vessel at time of cell harvest) of ethanol ranged between 0.0%-0.51% v/v. Bioreactor physical conditions were maintained at a pH of 7.0±0.2, dissolved oxygen at 30% air saturation and a temperature of 35° C. during logarithmic cellular growth phase and shifted to 31° C. during cellular production phase (temperature was shifted one day before max viable cell density was reached). Basal and feed media were fully synthetic and chemically defined containing no animal derived components.
# CHO.DXB11 cells [3] = conditions: high ethanol 0.144% v/v vs low ethanol 0.072% v/v fed daily, 14 day fed-batch, mAb 1
# Description: as §2
# as §3, with “0.072% (Low Ethanol)” for “0.0%”, “0.144% (High Ethanol) v/v.” for “0.057% v/v using microscale bioreactors and two different cellular clones producing mAb1.”, “0.79%-1.58%” for “0.0%-0.51%”, “oxygen maintained” for “oxygen”, “30% of” for “30%”, “saturation,” for “saturation and a”
# CHO.DXB11 cells [4] = conditions: 14 day fed-batch
# Description: as §2
# as §1, with “0.018%” for “0.15%”, “0.0%-0.2%” for “0.0%-1.35%”, “7.0±0.2” for “7.0±0.1”
# The same basal media was used in formulation #1 and #2. Feed formulation #1 and #2 were similar in composition containing the same type and amount of amino acids and vitamins. Salt and metal ion type and concentration were slightly varied. Both feeds were fully synthetic and chemically defined containing no animal derived components.
# CHO.DXB11 cells [5] = assay: Fatty acid cytotoxicity, daily feed dosing; conditions: solubilized in ethanol, fed once daily, 10 μM to 160 μM
# Description: Fatty acid cytotoxicity to CHO.DXB11 cells was determined by daily feed dosing. 4 mL of CHO cells at 4 e^6/mL cellular density were seeded into 6 well deep plates, mixed at 150 RPM, and daily fed fatty acids. Fatty acids were solubilized in ethanol and fed once daily to increase well plate concentration from 10 μM to 160 μM.
# [6] = Formulation 1, ethanol 0.018% v/v fed daily vs baseline lacking ethanol
# [7] = Formulation 2, ethanol 0.018% v/v fed daily vs baseline lacking ethanol
smiles,measurement,setting,value
"CCO [Ethanol, ethanol]",Change in Acidic %,CHO.DXB11 cells [1]; 0.05% v/v ethanol fed daily,−4.7%
same,Change in Basic %,CHO.DXB11 cells [1]; 0.05% v/v ethanol fed daily,+1.0%
same,Change in G0%,CHO.DXB11 cells [1]; 0.05% v/v ethanol fed daily,−0.7%
same,Change in Man5%,CHO.DXB11 cells [1]; 0.05% v/v ethanol fed daily,−1.9%
same,Change in Titer,CHO.DXB11 cells [1]; 0.05% v/v ethanol fed daily,+2.0%
same,Change in Acidic %,CHO.DXB11 cells [1]; 0.1% v/v ethanol fed daily,−9.3%
same,Change in Basic %,CHO.DXB11 cells [1]; 0.1% v/v ethanol fed daily,+1.9%
same,Change in G0%,CHO.DXB11 cells [1]; 0.1% v/v ethanol fed daily,−1.3%
same,Change in Man5%,CHO.DXB11 cells [1]; 0.1% v/v ethanol fed daily,−3.8%
same,Change in Titer,CHO.DXB11 cells [1]; 0.1% v/v ethanol fed daily,+3.9%
same,Effect on G0F glycan species,CHO.DG44 derived clone,decreased
same,Effect on G0 glycan species,CHO.DG44 derived clone,increased
same,Effect on G1F glycan species,CHO.DG44 derived clone,increased
same,Effect on G2F glycan species,CHO.DG44 derived clone,increased
same,Effect on Man5 glycan species,CHO.DG44 derived clone,decreased
same,Effect on high molecular weight species,CHO.DG44 derived clone,decreased
same,Daily ethanol feeding above which cell growth rate and cell viability were negatively affected,CHO.DXB11 cells [2],exceeded 0.3 % v/v
same,Effect on G1F % glycan species,CHO.DXB11 derived clone; both cell lines (A and B),increased
same,Effect on G2F % glycan species,CHO.DXB11 derived clone; both cell lines (A and B),increased
same,Effect on Man5% glycan species,CHO.DXB11 derived clone; both cell lines (A and B),decreased
same,Effect on relative amount of acidic charge variants,CHO.DXB11 derived clone; both cell lines (A and B),decreased
same,Effect on relative percentage of basic charge variants,CHO.DXB11 derived clone; both cell lines (A and B),slightly increasing
same,Effect on G0% glycan species,CHO.DXB11 derived clone; cell lines A and B,varied with respect to the cell line
same,Effect on G0F % glycan species,CHO.DXB11 derived clone; cell lines A and B,varied with respect to the cell line
same,Effect on G0 glycan species,CHO.DXB11 cells [3],less
same,Effect on G1F glycan species,CHO.DXB11 cells [3],greater
same,Effect on G2F glycan species,CHO.DXB11 cells [3],greater
same,Effect on Man5 glycan species,CHO.DXB11 cells [3],less
same,Effect on high molecular weight species,CHO.DXB11 cells [3],less
same,Effect on low molecular weight species,CHO.DXB11 cells [3],less
same,Effect on G0F glycan species,CHO.DXB11 cells [4]; [6],less
same,Effect on G0 glycan species,CHO.DXB11 cells [4]; [6],less
same,Effect on G1F glycan species,CHO.DXB11 cells [4]; [6],increased
same,Effect on G2F glycan species,CHO.DXB11 cells [4]; [6],increased
same,Effect on Man5 glycan species,CHO.DXB11 cells [4]; [6],increased
same,Effect on acidic charge variants,CHO.DXB11 cells [4]; [6],less
same,Effect on basic charge variants,CHO.DXB11 cells [4]; [6],increased
same,Effect on G0F glycan species,CHO.DXB11 cells [4]; [7],greater
same,Effect on G0 glycan species,CHO.DXB11 cells [4]; [7],decreased
same,Effect on G1F glycan species,CHO.DXB11 cells [4]; [7],decreased
same,Effect on G2F glycan species,CHO.DXB11 cells [4]; [7],greater
same,Effect on Man5 glycan species,CHO.DXB11 cells [4]; [7],decreased
same,Effect on acidic charge variants,CHO.DXB11 cells [4]; [7],higher
CC/C=C\C/C=C\C/C=C\CCCCCCCC(=O)O [linolenic acid],Daily feeding concentration at which the supplement became toxic,CHO.DXB11 cells [5],around 40 μM
